Reference: US12617773B2, “Azetidin-3-ylmethanol derivatives as CCR6 receptor modulators” (Idorsia Pharmaceuticals Ltd, priority 2020, dated 2026)

target: T1, human CCR6 (Homo sapiens, UniProt P51684); assay: FLIPR assay (inhibition of CCL20-induced calcium signal); assay type: cell-based; settings: HEK-293 cells expressing human CCR6; mean values where determined several times; read-out: FLIPR IC50
T1 construct: expressed in transfected cells; host or cells: HEK-293
T1 sequence (P51684 1-374): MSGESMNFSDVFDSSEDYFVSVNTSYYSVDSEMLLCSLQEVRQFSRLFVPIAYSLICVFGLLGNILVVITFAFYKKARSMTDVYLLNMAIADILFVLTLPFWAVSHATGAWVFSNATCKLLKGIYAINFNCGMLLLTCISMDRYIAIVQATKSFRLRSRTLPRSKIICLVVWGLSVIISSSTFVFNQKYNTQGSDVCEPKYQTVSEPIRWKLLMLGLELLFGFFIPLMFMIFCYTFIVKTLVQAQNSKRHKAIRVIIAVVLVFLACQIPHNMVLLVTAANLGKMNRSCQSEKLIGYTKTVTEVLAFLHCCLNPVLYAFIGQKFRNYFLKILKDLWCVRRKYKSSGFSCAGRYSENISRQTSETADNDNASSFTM
Outline: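 Dye-loaded HEK-293 cells expressing human CCR6 were preincubated with compound for 30 min at room temperature in the dark, then challenged with 10 nM CCL20 (final). Fluorescence was tracked on FLIPR, and baseline-subtracted peak emission over base after agonist addition gave inhibition dose-response curves for IC50.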

Row | IC50 [nM] | Structure (SMILES)
1 | 164 | CC(C)c1ccc([C@](O)(c2cnnc(N3CCCC3=O)c2)C2(C)CN(C)C2)cc1 [Example 222, 1-{5-[(R)-(1,3-Dimethyl-azetidin-3-yl)-hydroxy-(4-isopropyl-phenyl)-methyl]-pyridazin-3-yl}-pyrrolidin-2-one]
2 | 110 | CC(C)c1ccc([C@](O)(c2cncc(-c3noc(C4(C)CCN(C)C4=O)n3)c2)C2(C)CN(C)C2)cc1 (stereo partly drawn) [Example 352]
3 | 32 | CC(C)c1ccc([C@](O)(c2ccnc(N3CCCC3)c2)C2(C)CN(C)C2)cc1 [Example 273, (S)-(1,3-Dimethyl-azetidin-3-yl)-(4-isopropyl-phenyl)-(2-pyrrolidin-1-yl-pyridin-4-yl)-methanol]
4 | 67.8 | CC(C)c1ccc([C@](O)(c2cncc(-c3ncc(C4CCOCC4)o3)c2)C2(C)CN(C)C2)cc1 [Example 323, (R)-(1,3-Dimethyl-azetidin-3-yl)-(4-isopropyl-phenyl)-{5-[5-(tetrahydro-pyran-4-yl)-oxazol-2-yl]-pyridin-3-yl}-methanol]
5 | 46.7 | CC(C)c1ccc([C@](O)(c2cncc(-c3noc(C4CCOC4)n3)c2)C2(C)CN(C)C2)cc1 (stereo partly drawn) [Example 106]
6 | 209 | CC(C)c1ccc([C@](O)(c2cnnc(O[C@H]3CCOC3)c2)C2(C)CN(C)C2)cc1 [Example 430, (R)-(1,3-Dimethyl-azetidin-3-yl)-(4-isopropyl-phenyl)-{6-[(S)-(tetrahydro-furan-3-yl)oxy]-pyridazin-4-yl}-methanol]
7 | 45.4 | CC(C)c1ccc([C@](O)(c2cncc(C#CC(C)(C)N3CCNC3=O)c2)C2(C)CN(C)C2)cc1 [Example 594]
8 | 211 | CC(C)c1ccc([C@](O)(c2cnnc(C#CC(C)(C)N3CCCC3=O)c2)C2(C)CN(C)C2)cc1 [Example 664]
9 | 178 | CC(C)c1ccc([C@](O)(c2cncc(-c3noc([C@@H]4CC(=O)N4)n3)c2)C2(C)CN(C)C2)cc1 [Example 363]
10 | 118 | CC(C)c1ccc([C@](O)(c2cncc([C@H]3CCC(C)(O)C3)c2)C2(C)CN(C)C2)cc1 (stereo partly drawn) [Example 296, (3S)-3-(5-((R)-(1,3-dimethylazetidin-3-yl)(hydroxy)(4-isopropylphenyl)methyl)pyridin-3-yl)-1-methylcyclopentan-1-ol]
11 | 153 | CC(C)c1ccc([C@](O)(c2cncc(-c3nc(CO)no3)c2)C2(C)CN(C)C2)cc1 [Example 521]
12 | 247 | CC(C)c1ccc(C(O)(c2cncc(OCC3COC3)c2)C2(C)CN(C)C2)cc1 (stereo not drawn) [Example 248]
13 | 56.7 | CC(C)c1ccc([C@](O)(c2cncc(OC3CCOCC3)c2)C2(C)CN(C)C2)cc1 [Example 259]
14 | 413 | CC(C)c1ccc(C(O)(c2ccnc(N3CCOCC3)c2)C2(C)CN(C)C2)cc1 (stereo not drawn) [Example 276]
15 | 82.9 | CC(C)c1ccc([C@](O)(c2cncc(N3C[C@H]4CC[C@@H](C3)O4)c2)C2(C)CN(C)C2)cc1 [Example 240]
16 | 159 | CC(C)c1ccc([C@](O)(c2cncc(N3CC4(CCC(F)(F)CC4)OC3=O)c2)C2(C)CN(C)C2)cc1 [Example 201]
17 | 58.1 | CNC1(c2nc(-c3cncc([C@@](O)(c4ccc(C(C)C)cc4)C4(C)CN(C)C4)c3)no2)CC1 [Example 389, (R)-(1,3-Dimethyl-azetidin-3-yl)-(4-isopropyl-phenyl)-{5-[5-(1-methylamino-cyclopropyl)-[1,2,4]oxadiazol-3-yl]-pyridin-3-yl}-methanol]
18 | 598 | CC(C)c1ccc([C@](O)(c2cnnc(C3CCOCC3)c2)C2(C)CN(C)C2)cc1 [Example 428, (R)-(1,3-Dimethyl-azetidin-3-yl)-(4-isopropyl-phenyl)-[6-(tetrahydro-pyran-4-yl)-pyridazin-4-yl]-methanol]
19 | 74 | CC(C)c1ccc([C@](O)(c2cncc(-c3noc(C(C)(C)CO)n3)c2)C2(C)CN(C)C2)cc1 [Example 135]
20 | 25.9 | CC(C)c1ccc([C@](O)(c2cncc(N3CC(c4cccc(C(C)C)n4)CC3=O)c2)C2(C)CN(C)C2)cc1 (stereo partly drawn) [Example 674]
21 | 33.9 | CC(C)c1ccc(C(O)(c2cncc(C3=CCCC3)c2)C2(C)CN(C)C2)cc1 (stereo not drawn) [Example 288]
22 | 61 | CC(C)c1ccc([C@](O)(c2cncc(CCC3(O)CCC3)c2)C2(C)CN(C)C2)cc1 [Example 56]
23 | 385 | CC(C)c1ccc([C@](O)(c2cncc(C3CCOC3)c2)C2(C)CN(C)C2)cc1 (stereo partly drawn) [Example 304, (R)-(1,3-Dimethyl-azetidin-3-yl)-(4-isopropyl-phenyl)-[5-(tetrahydro-furan-3-yl)-pyridin-3-yl]-methanol]
24 | 133 | CCN1CC(c2nc(-c3cncc([C@@](O)(c4ccc(C(C)C)cc4)C4(C)CN(C)C4)c3)no2)CC1=O (single isomer, unassigned) [Example 511]

More lines, now with the values behind:

Row | Structure (SMILES) | IC50 [nM]
25 | CC(C)c1ccc([C@](O)(c2cncc(-c3noc(C4(O)CCOCC4)n3)c2)C2(C)CN(C)C2)cc1 [Example 502] | 65.8
26 | COC1CN(C(C)=O)CCC1c1nc(-c2cncc([C@@](O)(c3ccc(C(C)C)cc3)C3(C)CN(C)C3)c2)no1 (stereo partly drawn) [Example 500, 1-[4-(3-{5-[(R)-(1,3-Dimethyl-azetidin-3-yl)-hydroxy-(4-isopropyl-phenyl)-methyl]-pyridin-3-yl}-[1,2,4]oxadiazol-5-yl)-3-methoxy-piperidin-1-yl]-ethanone] | 149
27 | CC(=O)N1CCC(c2nc(-c3cncc(C(O)(c4ccc(C5(C)CC5)cc4)C4(C)CN(C)C4)c3)no2)CC1 (stereo not drawn) [Example 566] | 209
28 | CN1CC(C)([C@](O)(c2ccc(C34CC(C3)C4)cc2)c2cncc(-c3noc(C(C)(C)O)n3)c2)C1 [Example 549] | 58.2
29 | CN1CC(C)([C@](O)(c2ccc(C3CC3)cc2)c2cncc(-c3nc(C4CCOCC4)no3)c2)C1 [Example 82, (R)-(4-Cyclopropyl-phenyl)-(1,3-dimethyl-azetidin-3-yl)-{5-[3-(tetrahydro-pyran-4-yl)-[1,2,4]oxadiazol-5-yl]-pyridin-3-yl}-methanol] | 185
30 | Cc1ccc(C(C)(O)C#Cc2cncc([C@@](O)(c3ccc(C(C)C)cc3)C3(C)CN(C)C3)c2)s1 (stereo partly drawn) [Example 650] | 15.9
31 | CC(C)c1ccc([C@](O)(c2cncc(C#CC3(O)C(=O)N(C)c4ccccc43)c2)C2(C)CN(C)C2)cc1 (stereo partly drawn) [Example 612] | 58.5
32 | CC(C)c1ccc([C@](O)(c2cncc(C#CC(C)(O)c3cc(C(F)F)ncn3)c2)C2(C)CN(C)C2)cc1 (stereo partly drawn) [Example 633] | 42.5
33 | CC(=O)N1CCC(c2nc(-c3cncc([C@@](O)(c4ccc(C5CCC5)cc4)C4(C)CN(C)C4)c3)no2)CC1 [Example 558] | 84.5
34 | CC(C)c1ccc([C@](O)(c2cncc(C#CC(C)(O)c3ncccn3)c2)C2(C)CN(C)C2)cc1 (stereo partly drawn) [Example 38] | 130
35 | CC(C)c1ccc([C@](O)(c2cncc(-c3noc(C(C)(C)O)n3)c2)C2(C)CN(C)C2)cc1F [Example 539] | 56
36 | CC(C)c1ccc([C@](O)(c2cncc(-c3noc(C(C)(C)O)n3)c2)C2(F)CN(C3CC3)C2)cc1 [Example 446, 2-(3-{5-[(S)-(1-Cyclopropyl-3-fluoro-azetidin-3-yl)-hydroxy-(4-isopropyl-phenyl)-methyl]-pyridin-3-yl}-[1,2,4]oxadiazol-5-yl)-propan-2-ol] | 48.4
37 | CC(=O)N1CCC(F)(c2nc(-c3cncc([C@@](O)(c4ccc(C(C)C)cc4)C4(C)CN(C)C4)c3)no2)CC1 [Example 422] | 66.7
38 | CC(=O)N1CCC(c2nc(-c3cncc([C@@](O)(c4ccc(C(C)C)cc4)C4(C)CN(CCO)C4)c3)no2)CC1 [Example 580, 1-[4-(3-{5-[(R)-Hydroxy-[1-(2-hydroxy-ethyl)-3-methyl-azetidin-3-yl]-(4-isopropyl-phenyl)-methyl]-pyridin-3-yl}[1,2,4]oxadiazol-5-yl)-piperidin-1-yl]-ethanone] | 294
39 | CN1CC(C)([C@](O)(c2ccc(C3CCC3)cc2)c2cncc(-c3noc(C(C)(C)O)n3)c2)C1 [Example 557] | 46.3
40 | CC(C)c1ccc([C@](O)(c2cncc(C#CC(C)(O)c3cccc(F)c3)c2)C2(C)CN(C)C2)cc1 (stereo partly drawn) [Example 32] | 18.7
41 | Cc1ncc(C(C)(O)C#Cc2cncc([C@@](O)(c3ccc(C(C)C)cc3)C3(C)CN(C)C3)c2)s1 (stereo partly drawn) [Example 618] | 23.3
42 | Cc1nn(C)cc1C(O)CCc1cncc([C@@](O)(c2ccc(C(C)C)cc2)C2(C)CN(C)C2)c1 (stereo partly drawn) [Example 64] | 441
43 | CN1CC(C)([C@](O)(c2ccc(Br)cc2)c2cncc(-c3noc(C(C)(C)O)n3)c2)C1 [Example 532] | 718
44 | COc1cccc(-c2nc(-c3cncc([C@@](O)(c4ccc(C(C)C)cc4)C4(C)CN(C)C4)c3)no2)c1 [Example 506] | 24
45 | CC(C)c1ccc([C@](O)(c2cncc(CCC(O)c3ccccc3)c2)C2(C)CN(C)C2)cc1 (stereo partly drawn) [Example 59] | 7.1
46 | CCN1CC(C)([C@](O)(c2ccc(C(C)C)cc2)c2cncc(-c3noc(C(C)(C)O)n3)c2)C1 [Example 340, 2-(3-{5-[(R)-(1-Ethyl-3-methyl-azetidin-3-yl)-hydroxy-(4-isopropyl-phenyl)-methyl]-pyridin-3-yl}-[1,2,4]oxadiazol-5-yl)-propan-2-ol] | 79.4
47 | CCOC(=O)N(C)C1(c2nc(-c3cncc([C@@](O)(c4ccc(C(C)C)cc4)C4(C)CN(C)C4)c3)no2)CC1 [Example 390] | 175
48 | COCC1(Cc2nc(-c3cncc([C@@](O)(c4ccc(C(C)C)cc4)C4(C)CN(C)C4)c3)no2)CC1 [Example 138] | 45.8
